This note sets out measurements from US8796466B2, “Hepatitis C virus inhibitors” (Bristol-Myers Squibb Company, priority 2009, dated 2014).

Each structure is given as a SMILES string.

The test system of one assay is HCV 1b genotype. In words: HCV Replicon assay (HCV 1b genotype). It is filed as cell-based, Hepatitis C virus. Particulars: Hepatitis C virus; HCV 1b genotype replicon; Effective 50% inhibitory concentration; read-out: 1b EC50. On the procedure:
An HCV Replicon assay was utilized in the present disclosure, and was prepared, conducted and validated as described in commonly owned PCT/US2006/022197 and in O'Boyle et. al. Antimicrob Agents Chemother. 2005 April; 49(4):1346-53. Assay methods incorporating luciferase reporters have also been used as described (Apath.com).
HCV-neo replicon cells and replicon cells containing mutations in the NS5A region were used to test the currently described family of compounds. The compounds were determined to have more than 10-fold less inhibitory activity on cells containing mutations than wild-type cells. Thus, the compounds of the present disclosure can be effective in inhibiting the function of the HCV NS5A protein and are understood to be as effective in combinations as previously described in application PCT/US2006/022197 and commonly owned WO/04014852. Further, the compounds of the present disclosure can be effective against the HCV 1b genotype. It should also be understood that the compounds of the present disclosure can inhibit multiple genotypes of HCV. […] In one embodiment, compounds of the present disclosure are inhibitory versus 1a, 1b, 2a, 2b, 3a, 4a, and 5a genotypes.
In the case of `COC(=O)N[C@H](C(=O)N1CCC[C@H]1c1ncc(-c2cccc(C#Cc3cccc(-c4cnc([C@@H]5CCCN5C(=O)[C@@H](NC(=O)OC)C5CCOCC5)[nH]4)c3)c2)[nH]1)C1CCOCC1` [Example J2, dimethyl (1,2-ethynediylbis(3,1-phenylene-1H-imidazole-4,2-diyl(2S)-2,1-pyrrolidinediyl((1S)-2-oxo-1-(tetrahydro-2H-pyran-4-yl)-2,1-ethanediyl)))biscarbamate], the EC50 was determined as 120 pM. As for `COC(=O)N[C@H](C(=O)N1CCC[C@H]1c1nc(-c2cccc(C#Cc3cccc(-c4c[nH]c([C@@H]5CCCN5)n4)c3)c2)c[nH]1)C(C)C` [Example J1.1, methyl ((1S)-2-methyl-1-(((2S)-2-(4-(3-((3-(2-((2S)-2-pyrrolidinyl)-1H-imidazol-4-yl)phenyl)ethynyl)phenyl)-1H-imidazol-2-yl)-1-pyrrolidinyl)carbonyl)propyl)carbamate], the concentration giving a half-maximal response (EC50) was found to be 339000 pM.

Staying with this assay, now noted: Hepatitis C virus; HCV 1b genotype replicon; class symbol; read-out: Range (EC50 values against HCV 1b).
`COC(=O)N[C@H](C(=O)N1[C@@H]2C[C@@H]2C[C@H]1c1nc(-c2ccc(C#Cc3ccc(-c4[nH]c([C@@H]5C[C@H]6C[C@H]6N5C(=O)[C@@H](NC(=O)OC)C(C)C)nc4Cl)cc3)cc2)c[nH]1)C(C)C` [Example M8, methyl ((1S)-1-(((1R,3S,5R)-3-(4-chloro-5-(4-((4-(2-((1R,3S,5R)-2-((2S)-2-((methoxycarbonyl)amino)-3-methylbutanoyl)-2-azabicyclo[3.1.0]hex-3-yl)-1H-imidazol-4-yl)phenyl)ethynyl)phenyl)-1H-imidazol-2-yl)-2-azabicyclo[3.1.0]hex-2-yl)carbonyl)-2-methylpropyl)carbamate]: the EC50 was 2 to 99 pM. Still for that read-out and setting: as for `COC(=O)N[C@H](C(=O)N1[C@@H](C)CC[C@H]1c1ncc(-c2ccc(C#Cc3ccc(-c4cnc([C@@H]5CC[C@H](C)N5C(=O)[C@@H](NC(=O)OC)C(C)C)[nH]4)cc3)cc2)[nH]1)C(C)C` [Example M10, methyl ((1S)-1-(((2S,5S)-2-(4-(4-((4-(2-((2S,5S)-1-((2S)-2-((methoxycarbonyl)amino)-3-methylbutanoyl)-5-methyl-2-pyrrolidinyl)-1H-imidazol-4-yl)phenyl)ethynyl)phenyl)-1H-imidazol-2-yl)-5-methyl-1-pyrrolidinyl)carbonyl)-2-methylpropyl)carbamate], the figure is 2 to 99 pM; as for `COC(=O)N[C@H](C(=O)N1CCC[C@H]1c1ncc(-c2cccc(C#Cc3cccc(-c4cnc([C@@H]5CCCN5C(=O)[C@@H](NC(=O)OC)C5CCOCC5)[nH]4)c3)c2)[nH]1)C1CCOCC1` [Example J2, dimethyl (1,2-ethynediylbis(3,1-phenylene-1H-imidazole-4,2-diyl(2S)-2,1-pyrrolidinediyl((1S)-2-oxo-1-(tetrahydro-2H-pyran-4-yl)-2,1-ethanediyl)))biscarbamate], 100 to 990 pM; as for `COC(=O)N[C@H](C(=O)N1CCC[C@H]1c1nc(-c2cccc(C#Cc3cccc(-c4c[nH]c([C@@H]5CCCN5)n4)c3)c2)c[nH]1)C(C)C` [Example J1.1, methyl ((1S)-2-methyl-1-(((2S)-2-(4-(3-((3-(2-((2S)-2-pyrrolidinyl)-1H-imidazol-4-yl)phenyl)ethynyl)phenyl)-1H-imidazol-2-yl)-1-pyrrolidinyl)carbonyl)propyl)carbamate], 10000 to 350000 pM. As for `CC[C@H](NC(=O)OC)C(=O)N1[C@@H]2C[C@@H]2C[C@H]1c1nc(-c2ccc(C#Cc3ccc(-c4c[nH]c([C@@H]5C[C@H]6C[C@H]6N5C(=O)[C@H](CC)NC(=O)OC)n4)cc3)cc2)c[nH]1` [Example M4, dimethyl (1,2-ethynediylbis(4,1-phenylene-1H-imidazole-4,2-diyl(1R,3S,5R)-2-azabicyclo[3.1.0]hexane-3,2-diyl((2S)-1-oxo-1,2-butanediyl)))biscarbamate], the EC50 lay within 2 to 99 pM.

In the case of `COC(=O)N[C@H](C(=O)N1CCOCC1c1ncc(-c2ccc(C#Cc3ccc(-c4cnc(C5COCCN5C(=O)[C@@H](NC(=O)OC)C(C)C)[nH]4)cc3)cc2)[nH]1)C(C)C` (stereo in doubt) [Example N5, methyl ((1S)-1-(((3S)-3-(4-(4-((4-(2-((3S)-4-((2S)-2-((methoxycarbonyl)amino)-3-methylbutanoyl)-3-morpholinyl)-1H-imidazol-4-yl)phenyl)ethynyl)phenyl)-1H-imidazol-2-yl)-4-morpholinyl)carbonyl)-2-methylpropyl)carbamate], the concentration for a half-maximal effect (EC50) was in the range of 2 to 99 pM. The same measure, in the same setting: as for `CN(C)[C@@H](C(=O)N1CCC[C@H]1c1ncc(-c2ccc(Oc3ccc(-c4cnc([C@@H]5CCCN5C(=O)[C@@H](c5ccccc5)N(C)C)[nH]4)cc3)cc2)[nH]1)c1ccccc1` [OL-1, (1R)-2-((2S)-2-(4-(4-(4-(2-((2S)-1-((2R)-2-(dimethylamino)-2-phenylacetyl)-2-pyrrolidinyl)-1H-imidazol-5-yl)phenoxy)phenyl)-1H-imidazol-2-yl)-1-pyrrolidinyl)-N,N-dimethyl-2-oxo-1-phenylethanamine], the figure is 1000 to 9900 pM; as for `O=C(NC1CCCC1)N[C@@H](C(=O)N1CCC[C@H]1c1nc(-c2ccc(CCc3ccc(-c4cnc([C@@H]5CCCN5C(=O)[C@H](NC(=O)NC5CCCC5)c5ccccc5)[nH]4)cc3)cc2)c[nH]1)c1ccccc1` [OL-13, 1-cyclopentyl-3-((1R)-2-((2S)-2-(4-(4-(2-(4-(2-((2S)-1-((2R)-2-((cyclopentylcarbamoyl)amino)-2-phenylacetyl)-2-pyrrolidinyl)-1H-imidazol-5-yl)phenyl)ethyl)phenyl)-1H-imidazol-2-yl)-1-pyrrolidinyl)-2-oxo-1-phenylethyl)urea], 2 to 99 pM; as for `CN(C)[C@@H](C(=O)N1CCC[C@H]1c1nc(-c2ccc(-c3ccc(-c4ccc(-c5c[nH]c([C@@H]6CCCN6C(=O)[C@@H](c6ccccc6)N(C)C)n5)cc4)cc3)cc2)c[nH]1)c1ccccc1` [Example D-2, (1R)-2-((2S)-2-(4-(4″-(2-((2S)-1-((2R)-2-(dimethylamino)-2-phenylacetyl)-2-pyrrolidinyl)-1H-imidazol-5-yl)-1,1′:4′,1″-terphenyl-4-yl)-1H-imidazol-2-yl)-1-pyrrolidinyl)-N,N-dimethyl-2-oxo-1-phenylethanamine], 100 to 990 pM. Consider `COC(=O)N[C@H](C(=O)N1[C@@H]2C[C@@H]2C[C@H]1c1nc(-c2ccc([C@@H]3C[C@H]3c3ccc(-c4c[nH]c([C@@H]5C[C@H]6C[C@H]6N5C(=O)[C@@H](NC(=O)OC)C(C)C)n4)cc3)cc2)c[nH]1)C(C)C` [m9.5, methyl ((1S)-1-(((1R,3S,5R)-3-(4-(4-((1R,2R)-2-(4-(2-((1R,3S,5R)-2-((2S)-2-((methoxycarbonyl)amino)-3-methylbutanoyl)-2-azabicyclo[3.1.0]hex-3-yl)-1H-imidazol-4-yl)phenyl)cyclopropyl)phenyl)-1H-imidazol-2-yl)-2-azabicyclo[3.1.0]hex-2-yl)carbonyl)-2-methylpropyl)carbamate], for which the EC50 was 2 to 99 pM. As for `COC(=O)N[C@H](C(=O)N1[C@@H](C)CC[C@H]1c1ncc(-c2ccc(C#Cc3ccc(-c4cnc([C@@H]5CC[C@H](C)N5C(=O)[C@@H](NC(=O)OC)C5CCOCC5)[nH]4)cc3)cc2)[nH]1)C(C)C` [Example M12.1, methyl ((1S)-1-(((2S,5S)-2-(4-(4-((4-(2-((2S,5S)-1-((2S)-2-((methoxycarbonyl)amino)-2-(tetrahydro-2H-pyran-4-yl)acetyl)-5-methyl-2-pyrrolidinyl)-1H-imidazol-4-yl)phenyl)ethynyl)phenyl)-1H-imidazol-2-yl)-5-methyl-1-pyrrolidinyl)carbonyl)-2-methylpropyl)carbamate], the half-maximal effective concentration (EC50) lay within 2 to 99 pM. Still for that read-out and setting: with `COC(=O)N[C@H](C(=O)N1[C@H](c2ncc(-c3ccc(C#Cc4ccc(-c5cnc([C@@H]6C[C@@H]7C[C@@H]7N6C(=O)[C@@H](NC(=O)OC)C6CCOCC6)[nH]5)cc4)cc3)[nH]2)C[C@@H]2C[C@@H]21)C1CCOCC1` [Example N9, dimethyl (1,2-ethynediylbis(4,1-phenylene-1H-imidazole-4,2-diyl(1S,3S,5S)-2-azabicyclo[3.1.0]hexane-3,2-diyl((1S)-2-oxo-1-(tetrahydro-2H-pyran-4-yl)-2,1-ethanediyl)))biscarbamate] the figure was 2 to 99 pM. The same measure, in the same setting: as for `COC(=O)N[C@H](C(=O)N1[C@@H]2C[C@@H]2C[C@H]1c1ncc(-c2ccc(/C=C/c3ccc(-c4cnc([C@@H]5C[C@H]6C[C@H]6N5C(=O)[C@@H](NC(=O)OC)C(C)C)[nH]4)cc3)cc2)[nH]1)C(C)C` [Example M13, methyl ((1S)-1-(((1R,3S,5R)-3-(4-(4-((E)-2-(4-(2-((1R,3S,5R)-2-((2S)-2-((methoxycarbonyl)amino)-3-methylbutanoyl)-2-azabicyclo[3.1.0]hex-3-yl)-1H-imidazol-4-yl)phenyl)vinyl)phenyl)-1H-imidazol-2-yl)-2-azabicyclo[3.1.0]hex-2-yl)carbonyl)-2-methylpropyl)carbamate], the figure is 2 to 99 pM. Consider `CN(C)[C@@H](C(=O)N1CCC[C@H]1c1ncc(-c2ccc(COc3ccc(-c4cnc([C@@H]5CCCN5C(=O)[C@@H](c5ccccc5)N(C)C)[nH]4)cc3)cc2)[nH]1)c1ccccc1` [OL-7, (1R)-2-((2S)-2-(4-(4-((4-(2-((2S)-1-((2R)-2-(dimethylamino)-2-phenylacetyl)-2-pyrrolidinyl)-1H-imidazol-4-yl)benzyl)oxy)phenyl)-1H-imidazol-2-yl)-1-pyrrolidinyl)-N,N-dimethyl-2-oxo-1-phenylethanamine], for which the EC50 fell in the range of 2 to 99 pM.

As to `COC(=O)N[C@H](C(=O)N1C[C@@H](C)C[C@H]1c1ncc(-c2ccc([C@H]3C[C@@H]3c3ccc(-c4cnc([C@@H]5C[C@H](C)CN5C(=O)[C@@H](NC(=O)OC)C(C)C)[nH]4)cc3)cc2)[nH]1)C(C)C` [Example M9.7, methyl ((1S)-1-(((2S,4S)-2-(4-(4-((1S,2S)-2-(4-(2-((2S,4S)-1-((2S)-2-((methoxycarbonyl)amino)-3-methylbutanoyl)-4-methyl-2-pyrrolidinyl)-1H-imidazol-4-yl)phenyl)cyclopropyl)phenyl)-1H-imidazol-2-yl)-4-methyl-1-pyrrolidinyl)carbonyl)-2-methylpropyl)carbamate], the EC50 was 2 to 99 pM.
